Experiment: xn = mol fraction of the nth substance listed
Details: Liquid, Vibrating tube method

CCCCn1cc[n+](C)c1.F[B-](F)(F)F [1-butyl-3-methylimidazolium tetrafluoroborate] + CCO
Details | mass density [kg/m3]
298.15 K, 120 kPa, x1 = 0.9152 | 1199.7
298.15 K, 180 kPa, x1 = 0.7452 | 1171.71
298.15 K, 210 kPa, x1 = 0.5384 | 1124.67
298.15 K, 280 kPa, x1 = 1 | 1211.19
298.15 K, 340 kPa, x1 = 0.3147 | 1044.49
298.15 K, 390 kPa, x1 = 0.0701 | 875.91
298.15 K, 4960 kPa, x1 = 0.7452 | 1174.16
298.15 K, 5040 kPa, x1 = 0.5384 | 1127.45
298.15 K, 5140 kPa, x1 = 0.9152 | 1202.06
298.15 K, 5500 kPa, x1 = 0.0701 | 880.04
298.15 K, 5630 kPa, x1 = 0.3147 | 1048.05
298.15 K, 5640 kPa, x1 = 1 | 1213.63
298.15 K, 10030 kPa, x1 = 0.9152 | 1204.31
298.15 K, 10060 kPa, x1 = 0.7452 | 1176.71
298.15 K, 10260 kPa, x1 = 0.5384 | 1130.36
298.15 K, 10620 kPa, x1 = 1 | 1215.85
298.15 K, 10910 kPa, x1 = 0.3147 | 1051.47
298.15 K, 11370 kPa, x1 = 0.0701 | 884.58
298.15 K, 15130 kPa, x1 = 0.0701 | 887.37
298.15 K, 15210 kPa, x1 = 0.7452 | 1179.21
298.15 K, 15280 kPa, x1 = 0.3147 | 1054.2
298.15 K, 15320 kPa, x1 = 0.5384 | 1133.1
298.15 K, 15340 kPa, x1 = 1 | 1217.77
298.15 K, 15620 kPa, x1 = 0.9152 | 1206.82
298.15 K, 20090 kPa, x1 = 0.5384 | 1135.59
298.15 K, 20360 kPa, x1 = 0.7452 | 1181.64
298.15 K, 20480 kPa, x1 = 0.9152 | 1208.95
298.15 K, 20540 kPa, x1 = 0.3147 | 1057.36
298.15 K, 20640 kPa, x1 = 1 | 1220.29
298.15 K, 21070 kPa, x1 = 0.0701 | 891.6
298.15 K, 25270 kPa, x1 = 1 | 1222.18
298.15 K, 25410 kPa, x1 = 0.7452 | 1183.95
298.15 K, 25470 kPa, x1 = 0.3147 | 1060.21
298.15 K, 25570 kPa, x1 = 0.0701 | 894.66
298.15 K, 26070 kPa, x1 = 0.5384 | 1138.61
298.15 K, 26140 kPa, x1 = 0.9152 | 1211.36
298.15 K, 29870 kPa, x1 = 0.9152 | 1212.91
298.15 K, 30050 kPa, x1 = 1 | 1223.93
298.15 K, 30070 kPa, x1 = 0.5384 | 1140.56
298.15 K, 30090 kPa, x1 = 0.7452 | 1186.03
298.15 K, 30620 kPa, x1 = 0.0701 | 897.94
298.15 K, 31120 kPa, x1 = 0.3147 | 1063.34
298.15 K, 35410 kPa, x1 = 0.5384 | 1143.07
298.15 K, 35410 kPa, x1 = 1 | 1226.07
298.15 K, 35480 kPa, x1 = 0.7452 | 1188.36
298.15 K, 35740 kPa, x1 = 0.9152 | 1215.3
298.15 K, 35800 kPa, x1 = 0.3147 | 1065.82
298.15 K, 35860 kPa, x1 = 0.0701 | 901.17
298.15 K, 39340 kPa, x1 = 0.0701 | 903.23
298.15 K, 39610 kPa, x1 = 1 | 1227.81
298.15 K, 39770 kPa, x1 = 0.3147 | 1067.84
298.15 K, 39920 kPa, x1 = 0.7452 | 1190.22
298.15 K, 39980 kPa, x1 = 0.5384 | 1145.14
298.15 K, 39980 kPa, x1 = 0.9152 | 1216.97
323.15 K, 290 kPa, x1 = 0.0701 | 856.52
323.15 K, 340 kPa, x1 = 0.3147 | 1026.83
323.15 K, 420 kPa, x1 = 0.7452 | 1153.47
323.15 K, 510 kPa, x1 = 0.9152 | 1181.35
323.15 K, 730 kPa, x1 = 1 | 1192.89
323.15 K, 850 kPa, x1 = 0.5384 | 1106.94
323.15 K, 4870 kPa, x1 = 0.9152 | 1183.6
323.15 K, 4890 kPa, x1 = 0.5384 | 1109.43
323.15 K, 5010 kPa, x1 = 0.3147 | 1030.15
323.15 K, 5060 kPa, x1 = 0.7452 | 1156.05
323.15 K, 5410 kPa, x1 = 0.0701 | 861.09
323.15 K, 5640 kPa, x1 = 1 | 1195.3
323.15 K, 9860 kPa, x1 = 0.5384 | 1112.4
323.15 K, 10080 kPa, x1 = 0.9152 | 1186.23
323.15 K, 10110 kPa, x1 = 0.3147 | 1033.63
323.15 K, 10610 kPa, x1 = 1 | 1197.71
323.15 K, 10730 kPa, x1 = 0.0701 | 865.61
323.15 K, 10740 kPa, x1 = 0.7452 | 1159.11
323.15 K, 14870 kPa, x1 = 0.5384 | 1115.29
323.15 K, 15080 kPa, x1 = 0.7452 | 1161.39
323.15 K, 15210 kPa, x1 = 0.9152 | 1188.77
323.15 K, 15410 kPa, x1 = 0.3147 | 1037.07
323.15 K, 15430 kPa, x1 = 0.0701 | 869.4
323.15 K, 15440 kPa, x1 = 1 | 1200.01
323.15 K, 20160 kPa, x1 = 0.5384 | 1118.22
323.15 K, 20310 kPa, x1 = 0.7452 | 1164.06
323.15 K, 20330 kPa, x1 = 0.0701 | 873.16
323.15 K, 20460 kPa, x1 = 1 | 1202.37
323.15 K, 20470 kPa, x1 = 0.9152 | 1191.31
323.15 K, 20750 kPa, x1 = 0.3147 | 1040.38
323.15 K, 25010 kPa, x1 = 0.9152 | 1193.45
323.15 K, 25120 kPa, x1 = 0.7452 | 1166.45
323.15 K, 25360 kPa, x1 = 1 | 1204.64
323.15 K, 25380 kPa, x1 = 0.0701 | 876.83
323.15 K, 25840 kPa, x1 = 0.5384 | 1121.23
323.15 K, 26290 kPa, x1 = 0.3147 | 1043.62
323.15 K, 30070 kPa, x1 = 0.9152 | 1195.79
323.15 K, 30080 kPa, x1 = 0.7452 | 1168.84
323.15 K, 30260 kPa, x1 = 0.5384 | 1123.49
323.15 K, 30330 kPa, x1 = 0.0701 | 880.21
323.15 K, 30640 kPa, x1 = 0.3147 | 1046.04
323.15 K, 30740 kPa, x1 = 1 | 1207.09
323.15 K, 34740 kPa, x1 = 0.0701 | 883.06
323.15 K, 34960 kPa, x1 = 0.9152 | 1198
323.15 K, 35070 kPa, x1 = 0.7452 | 1171.16
323.15 K, 35260 kPa, x1 = 0.3147 | 1048.48
323.15 K, 35420 kPa, x1 = 0.5384 | 1126.01
323.15 K, 35650 kPa, x1 = 1 | 1209.29
323.15 K, 39850 kPa, x1 = 1 | 1211.14
323.15 K, 40000 kPa, x1 = 0.9152 | 1200.22
323.15 K, 40010 kPa, x1 = 0.0701 | 886.25
323.15 K, 40010 kPa, x1 = 0.7452 | 1173.4
323.15 K, 40020 kPa, x1 = 0.5384 | 1128.17
323.15 K, 40120 kPa, x1 = 0.3147 | 1050.91
348.15 K, 210 kPa, x1 = 1 | 1174.44
348.15 K, 230 kPa, x1 = 0.3147 | 1007.5
348.15 K, 380 kPa, x1 = 0.7452 | 1134.96
348.15 K, 450 kPa, x1 = 0.5384 | 1088.13
348.15 K, 460 kPa, x1 = 0.9152 | 1163.17
348.15 K, 520 kPa, x1 = 0.0701 | 835.75
348.15 K, 5010 kPa, x1 = 0.5384 | 1091.32
348.15 K, 5040 kPa, x1 = 0.9152 | 1165.81
348.15 K, 5340 kPa, x1 = 0.0701 | 840.67
348.15 K, 5360 kPa, x1 = 0.7452 | 1138.08
348.15 K, 5740 kPa, x1 = 0.3147 | 1011.89
348.15 K, 5960 kPa, x1 = 1 | 1177.75
348.15 K, 10060 kPa, x1 = 0.5384 | 1094.71
348.15 K, 10090 kPa, x1 = 0.7452 | 1140.95
348.15 K, 10480 kPa, x1 = 1 | 1180.3
348.15 K, 11210 kPa, x1 = 0.9152 | 1169.27
348.15 K, 11420 kPa, x1 = 0.3147 | 1016.16
348.15 K, 11710 kPa, x1 = 0.0701 | 846.75
348.15 K, 15080 kPa, x1 = 0.9152 | 1171.38
348.15 K, 15210 kPa, x1 = 0.5384 | 1098.01
348.15 K, 15420 kPa, x1 = 0.7452 | 1144.07
348.15 K, 15430 kPa, x1 = 1 | 1182.72
348.15 K, 15740 kPa, x1 = 0.3147 | 1019.22
348.15 K, 15840 kPa, x1 = 0.0701 | 850.45
348.15 K, 20060 kPa, x1 = 0.5384 | 1100.98
348.15 K, 20080 kPa, x1 = 0.7452 | 1146.71
348.15 K, 20550 kPa, x1 = 0.0701 | 854.43

Source: the NIST ThermoML archive (doi:10.1007/s10765-008-0410-4)
